{"source": "patent US11542240B2", "about": "“STK19 inhibitors for treatment of cancer” (TRUSTEES OF BOSTON UNIVERSITY, priority 2018, dated 2023)", "key": {"[1]": {"assay": "tolerability study in C57BL/6J mice (body weight, blood chemistry, H&E histology)", "method": "(§1) Data are means±SD (n=3). […] ATP Km (app) was calculated by fitting the data with Michaelis-Menten equation. Data are means±SD (n=3). […] Data are means±SD relative to control group (n=3). […] Data are means±SD relative to control group (n=3). […] Data are means±SD relative to control groups (n=3). Body weight measurements of C57BL/6J mice treated with 0 or 25 mg/kg IV (BID) for 15 days. Data are means±SEM relative to control groups (n=8). H&E staining of tissues in C57BL/6J mice treated with 0 or 25 mg/kg IV (BID) for 15 days. Scale bar, 250 m."}, "[2]": {"system": "hTERT/p53DD/CDK4(R24C) melanocytes", "assay": "cell proliferation assay of NRASQ61R-expressing immortal melanocytes", "assay_type": "cell-based, human", "conditions": "3 μM IV"}, "[3]": {"molecular_target": "panel of 468 diverse kinases (Homo sapiens, UniProt Q86YV6)", "assay": "biochemical", "assay_type": "binding", "conditions": "MYLK4; 1000 nM; read-out: Percent Control"}, "[4]": {"molecular_target": "panel of 468 diverse kinases (Mycobacterium tuberculosis, UniProt P9WI81)", "assay": "biochemical", "assay_type": "binding", "conditions": "read-out: Percent Control"}, "[5]": {"molecular_target": "panel of 468 diverse kinases (Homo sapiens, UniProt O00141)", "assay": "biochemical", "assay_type": "binding", "conditions": "SGK; 1000 nM; read-out: Percent Control"}, "[6]": {"molecular_target": "panel of 468 diverse kinases (Homo sapiens, UniProt P00533, L858R/T790M)", "assay": "biochemical", "assay_type": "binding", "conditions": "EGFR(L858R, T790M); 1000 nM; read-out: Percent Control"}, "[7]": {"molecular_target": "panel of 468 diverse kinases (Homo sapiens, UniProt P00533, DEL752-759)", "assay": "biochemical", "assay_type": "binding", "conditions": "EGFR(S752-I759del); 1000 nM; read-out: Percent Control"}, "[8]": {"molecular_target": "panel of 468 diverse kinases (Homo sapiens, UniProt P37023)", "assay": "biochemical", "assay_type": "binding", "conditions": "ACVRL1; 1000 nM; read-out: Percent Control"}, "[9]": {"molecular_target": "panel of 468 diverse kinases (Homo sapiens, UniProt Q8WU08)", "sequence (Q8WU08 2-396 limits assumed)": "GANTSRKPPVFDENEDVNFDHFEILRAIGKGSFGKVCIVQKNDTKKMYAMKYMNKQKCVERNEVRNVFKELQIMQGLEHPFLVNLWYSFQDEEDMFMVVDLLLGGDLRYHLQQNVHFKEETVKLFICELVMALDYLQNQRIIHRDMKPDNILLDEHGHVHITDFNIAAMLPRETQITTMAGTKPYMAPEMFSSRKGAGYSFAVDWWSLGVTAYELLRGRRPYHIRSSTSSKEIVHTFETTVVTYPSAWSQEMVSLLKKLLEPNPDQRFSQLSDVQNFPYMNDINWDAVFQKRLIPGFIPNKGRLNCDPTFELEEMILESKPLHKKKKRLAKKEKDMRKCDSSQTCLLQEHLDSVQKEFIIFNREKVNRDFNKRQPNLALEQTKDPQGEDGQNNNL", "assay": "biochemical", "assay_type": "binding", "conditions": "YANK1; 1000 nM; read-out: Percent Control"}, "[10]": {"molecular_target": "panel of 468 diverse kinases (Homo sapiens, UniProt O60674)", "assay": "biochemical", "assay_type": "binding", "conditions": "JAK2(JH1domain-catalytic); 1000 nM; read-out: Percent Control"}, "[11]": {"molecular_target": "panel of 468 diverse kinases (Homo sapiens, UniProt P10721, L576P)", "assay": "biochemical", "assay_type": "binding", "conditions": "KIT(L576P); 1000 nM; read-out: Percent Control"}, "[12]": {"molecular_target": "panel of 468 diverse kinases (Homo sapiens, UniProt Q9UM73, C1156Y)", "assay": "biochemical", "assay_type": "binding", "conditions": "ALK(C1156Y); 1000 nM; read-out: Percent Control"}, "[13]": {"molecular_target": "panel of 468 diverse kinases (Homo sapiens, UniProt P09619)", "sequence (P09619 33-1106 limits assumed)": "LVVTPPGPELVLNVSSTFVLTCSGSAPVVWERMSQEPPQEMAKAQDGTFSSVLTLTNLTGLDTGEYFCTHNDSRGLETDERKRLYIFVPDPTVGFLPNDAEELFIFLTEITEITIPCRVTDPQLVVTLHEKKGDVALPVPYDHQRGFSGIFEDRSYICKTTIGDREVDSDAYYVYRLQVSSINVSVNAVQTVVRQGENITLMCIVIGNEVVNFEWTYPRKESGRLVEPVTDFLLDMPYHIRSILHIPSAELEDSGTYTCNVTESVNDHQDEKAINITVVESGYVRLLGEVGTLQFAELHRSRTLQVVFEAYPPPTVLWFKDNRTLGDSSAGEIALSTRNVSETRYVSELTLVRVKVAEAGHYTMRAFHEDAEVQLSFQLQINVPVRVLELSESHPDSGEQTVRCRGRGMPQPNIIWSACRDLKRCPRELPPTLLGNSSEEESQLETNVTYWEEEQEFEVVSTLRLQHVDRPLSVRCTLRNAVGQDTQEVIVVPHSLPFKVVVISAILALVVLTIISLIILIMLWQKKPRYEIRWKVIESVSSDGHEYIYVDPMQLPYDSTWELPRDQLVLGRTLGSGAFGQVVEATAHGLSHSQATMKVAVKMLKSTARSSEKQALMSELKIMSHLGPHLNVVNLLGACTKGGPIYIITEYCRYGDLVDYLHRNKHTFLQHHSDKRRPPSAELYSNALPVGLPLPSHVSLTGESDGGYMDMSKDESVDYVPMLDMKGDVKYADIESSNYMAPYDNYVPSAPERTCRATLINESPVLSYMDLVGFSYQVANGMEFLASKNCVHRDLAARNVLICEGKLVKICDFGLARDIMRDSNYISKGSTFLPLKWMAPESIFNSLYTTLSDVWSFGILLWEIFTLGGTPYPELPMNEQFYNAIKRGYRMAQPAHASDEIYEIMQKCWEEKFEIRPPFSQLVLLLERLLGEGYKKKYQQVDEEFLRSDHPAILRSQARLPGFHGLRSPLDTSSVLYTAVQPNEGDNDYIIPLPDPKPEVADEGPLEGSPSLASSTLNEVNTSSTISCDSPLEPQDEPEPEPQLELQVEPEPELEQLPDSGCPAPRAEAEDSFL", "assay": "biochemical", "assay_type": "binding", "conditions": "PDGFRB; 1000 nM; read-out: Percent Control"}, "[14]": {"molecular_target": "panel of 468 diverse kinases (Homo sapiens, UniProt Q86V86)", "assay": "biochemical", "assay_type": "binding", "conditions": "PIM3; 1000 nM; read-out: Percent Control"}, "[15]": {"molecular_target": "panel of 468 diverse kinases (Homo sapiens, UniProt Q9UKE5)", "assay": "biochemical", "assay_type": "binding", "conditions": "TNIK; 1000 nM; read-out: Percent Control"}, "[16]": {"molecular_target": "panel of 468 diverse kinases (Homo sapiens, UniProt Q8TD19)", "assay": "biochemical", "assay_type": "binding", "conditions": "NEK9; 1000 nM; read-out: Percent Control"}, "[17]": {"molecular_target": "panel of 468 diverse kinases (Homo sapiens, UniProt P49760)", "assay": "biochemical", "assay_type": "binding", "conditions": "CLK2; 1000 nM; read-out: Percent Control"}, "[18]": {"molecular_target": "panel of 468 diverse kinases (Homo sapiens, UniProt Q9UL54)", "assay": "biochemical", "assay_type": "binding", "conditions": "TAOK2; 1000 nM; read-out: Percent Control"}, "[19]": {"molecular_target": "panel of 468 diverse kinases (Homo sapiens, UniProt Q6XUX3)", "assay": "biochemical", "assay_type": "binding", "conditions": "RIPK5; 1000 nM; read-out: Percent Control"}, "[20]": {"molecular_target": "panel of 468 diverse kinases (Homo sapiens, UniProt P51451)", "sequence (P51451 2-505 limits assumed)": "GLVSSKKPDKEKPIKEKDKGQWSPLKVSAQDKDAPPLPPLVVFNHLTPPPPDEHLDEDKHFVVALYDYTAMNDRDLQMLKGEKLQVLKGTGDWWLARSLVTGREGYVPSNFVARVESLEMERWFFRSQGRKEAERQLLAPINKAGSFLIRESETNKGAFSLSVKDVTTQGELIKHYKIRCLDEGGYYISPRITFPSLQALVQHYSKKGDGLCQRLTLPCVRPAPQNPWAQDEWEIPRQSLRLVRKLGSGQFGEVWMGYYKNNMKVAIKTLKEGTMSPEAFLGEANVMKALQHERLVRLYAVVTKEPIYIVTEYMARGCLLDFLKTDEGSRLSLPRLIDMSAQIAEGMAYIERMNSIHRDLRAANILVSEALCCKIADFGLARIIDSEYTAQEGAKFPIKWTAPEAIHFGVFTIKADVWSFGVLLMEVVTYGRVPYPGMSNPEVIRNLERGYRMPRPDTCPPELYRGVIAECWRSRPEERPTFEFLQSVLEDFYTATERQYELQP", "assay": "biochemical", "assay_type": "binding", "conditions": "BLK; 1000 nM; read-out: Percent Control"}, "[21]": {"molecular_target": "panel of 468 diverse kinases (Homo sapiens, UniProt P54764)", "assay": "biochemical", "assay_type": "binding", "conditions": "EPHA4; 1000 nM; read-out: Percent Control"}, "[22]": {"molecular_target": "panel of 468 diverse kinases (Homo sapiens, UniProt P57078)", "assay": "biochemical", "assay_type": "binding", "conditions": "RIPK4; 1000 nM; read-out: Percent Control"}, "[23]": {"molecular_target": "panel of 468 diverse kinases (Homo sapiens, UniProt O94806)", "assay": "biochemical", "assay_type": "binding", "conditions": "PRKD3; 1000 nM; read-out: Percent Control"}, "[24]": {"molecular_target": "panel of 468 diverse kinases (Homo sapiens, UniProt P45985)", "assay": "biochemical", "assay_type": "binding", "conditions": "MEK4; 1000 nM; read-out: Percent Control"}, "[25]": {"molecular_target": "panel of 468 diverse kinases (Homo sapiens, UniProt Q9HCP0)", "assay": "biochemical", "assay_type": "binding", "conditions": "CSNK1G1; 1000 nM; read-out: Percent Control"}, "[26]": {"molecular_target": "panel of 468 diverse kinases (Homo sapiens, UniProt P08581, Y1235D)", "sequence (P08581 25-1390 Y1235D limits assumed)": "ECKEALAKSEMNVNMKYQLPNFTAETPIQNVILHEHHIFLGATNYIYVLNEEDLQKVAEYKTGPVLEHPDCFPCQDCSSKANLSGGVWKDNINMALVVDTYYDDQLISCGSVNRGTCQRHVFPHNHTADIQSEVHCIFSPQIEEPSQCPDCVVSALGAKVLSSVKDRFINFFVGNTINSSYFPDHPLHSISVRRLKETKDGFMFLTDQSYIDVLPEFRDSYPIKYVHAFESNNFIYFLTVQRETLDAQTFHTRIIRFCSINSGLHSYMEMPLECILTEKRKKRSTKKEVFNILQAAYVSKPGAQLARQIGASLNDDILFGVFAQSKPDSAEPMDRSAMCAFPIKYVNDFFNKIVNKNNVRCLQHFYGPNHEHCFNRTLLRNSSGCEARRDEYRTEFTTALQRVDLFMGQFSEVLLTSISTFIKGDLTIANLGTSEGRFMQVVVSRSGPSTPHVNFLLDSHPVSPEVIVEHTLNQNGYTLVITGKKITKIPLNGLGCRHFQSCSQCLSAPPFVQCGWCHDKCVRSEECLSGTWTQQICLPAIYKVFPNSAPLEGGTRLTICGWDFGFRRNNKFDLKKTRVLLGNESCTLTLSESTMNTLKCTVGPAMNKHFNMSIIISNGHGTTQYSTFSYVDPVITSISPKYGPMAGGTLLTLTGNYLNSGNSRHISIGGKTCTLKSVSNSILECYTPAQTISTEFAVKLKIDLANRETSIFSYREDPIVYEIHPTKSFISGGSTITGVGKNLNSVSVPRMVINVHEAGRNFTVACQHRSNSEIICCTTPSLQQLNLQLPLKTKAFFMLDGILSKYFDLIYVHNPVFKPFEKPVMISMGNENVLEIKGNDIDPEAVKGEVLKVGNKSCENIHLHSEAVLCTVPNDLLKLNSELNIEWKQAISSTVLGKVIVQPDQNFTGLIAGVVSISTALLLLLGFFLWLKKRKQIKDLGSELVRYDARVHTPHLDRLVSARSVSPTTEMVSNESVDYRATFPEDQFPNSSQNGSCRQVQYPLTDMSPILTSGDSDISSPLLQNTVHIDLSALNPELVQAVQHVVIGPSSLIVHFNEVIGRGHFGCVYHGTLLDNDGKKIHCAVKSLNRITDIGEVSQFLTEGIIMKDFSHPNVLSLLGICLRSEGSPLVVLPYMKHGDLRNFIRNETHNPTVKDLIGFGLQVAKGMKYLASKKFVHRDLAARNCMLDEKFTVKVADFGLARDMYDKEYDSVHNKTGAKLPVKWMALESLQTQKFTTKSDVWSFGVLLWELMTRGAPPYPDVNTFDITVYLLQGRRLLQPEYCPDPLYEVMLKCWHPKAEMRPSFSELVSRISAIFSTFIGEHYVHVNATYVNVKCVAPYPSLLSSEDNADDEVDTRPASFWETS", "assay": "biochemical", "assay_type": "binding", "conditions": "MET(Y1235D); 1000 nM; read-out: Percent Control"}, "STK19": {"molecular_target": "STK19 (Homo sapiens (Human), UniProt P49842)", "sequence (P49842 other isoform, or with tags, fused parts or gaps)": "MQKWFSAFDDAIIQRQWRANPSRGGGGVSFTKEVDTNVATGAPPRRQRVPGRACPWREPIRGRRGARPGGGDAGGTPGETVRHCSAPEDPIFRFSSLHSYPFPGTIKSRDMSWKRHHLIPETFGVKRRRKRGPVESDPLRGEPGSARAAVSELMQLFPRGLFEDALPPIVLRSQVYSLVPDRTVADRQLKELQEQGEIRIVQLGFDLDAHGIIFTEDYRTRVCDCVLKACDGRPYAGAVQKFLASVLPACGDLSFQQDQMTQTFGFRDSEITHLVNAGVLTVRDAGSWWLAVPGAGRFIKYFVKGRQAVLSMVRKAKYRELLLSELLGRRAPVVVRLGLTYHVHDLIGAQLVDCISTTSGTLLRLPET", "assay": "thermal denaturation curve shift of STK19", "conditions": "read-out: shift in the melting temperature of STK19"}, "[27]": {"molecular_target": "G9a histone lysine methyltransferase (Homo sapiens (Human), UniProt Q96KQ7)", "sequence (Q96KQ7 whole entry)": "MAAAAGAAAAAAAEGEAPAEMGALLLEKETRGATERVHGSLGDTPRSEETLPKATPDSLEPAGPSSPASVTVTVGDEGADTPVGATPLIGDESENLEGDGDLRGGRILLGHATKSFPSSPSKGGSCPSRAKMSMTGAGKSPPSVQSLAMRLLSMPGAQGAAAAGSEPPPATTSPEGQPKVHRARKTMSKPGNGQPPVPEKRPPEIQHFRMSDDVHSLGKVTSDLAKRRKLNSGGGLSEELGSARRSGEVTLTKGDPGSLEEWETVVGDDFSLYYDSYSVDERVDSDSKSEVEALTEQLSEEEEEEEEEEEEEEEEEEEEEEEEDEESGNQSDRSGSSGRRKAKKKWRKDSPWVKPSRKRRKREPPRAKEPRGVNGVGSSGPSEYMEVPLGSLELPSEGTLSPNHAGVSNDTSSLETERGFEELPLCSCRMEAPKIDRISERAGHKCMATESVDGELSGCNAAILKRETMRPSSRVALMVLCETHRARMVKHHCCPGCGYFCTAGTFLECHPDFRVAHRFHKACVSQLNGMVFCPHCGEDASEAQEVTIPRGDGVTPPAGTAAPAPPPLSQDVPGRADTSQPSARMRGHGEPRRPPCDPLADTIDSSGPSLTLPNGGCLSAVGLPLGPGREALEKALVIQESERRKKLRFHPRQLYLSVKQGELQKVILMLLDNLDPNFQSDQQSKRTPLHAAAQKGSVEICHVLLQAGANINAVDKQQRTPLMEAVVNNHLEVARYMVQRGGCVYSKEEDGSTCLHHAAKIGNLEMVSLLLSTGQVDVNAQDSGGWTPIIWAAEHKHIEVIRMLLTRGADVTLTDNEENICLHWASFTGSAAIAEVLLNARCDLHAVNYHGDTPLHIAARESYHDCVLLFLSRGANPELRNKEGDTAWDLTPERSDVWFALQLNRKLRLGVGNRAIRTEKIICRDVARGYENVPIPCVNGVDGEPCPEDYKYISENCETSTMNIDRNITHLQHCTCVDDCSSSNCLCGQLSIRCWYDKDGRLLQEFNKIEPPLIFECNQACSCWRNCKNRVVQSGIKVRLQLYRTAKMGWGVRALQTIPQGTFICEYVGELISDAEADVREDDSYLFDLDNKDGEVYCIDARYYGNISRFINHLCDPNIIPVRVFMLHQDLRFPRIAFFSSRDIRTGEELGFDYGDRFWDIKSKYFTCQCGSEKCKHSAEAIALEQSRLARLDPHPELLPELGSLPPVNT", "assay": "in vitro methyltransferase assay, G9a enzyme activity", "assay_type": "biochemical", "conditions": "read-out: IC50, inhibitory activity towards G9a histone lysine methyltransferase"}, "STK19 L139F": {"molecular_target": "STK19 L139F (Homo sapiens (Human), UniProt P49842, L139F)", "sequence (P49842 other isoform, or with tags, fused parts or gaps L139F)": "as the sequence (P49842 other isoform, or with tags, fused parts or gaps) above, with L139F counted along it", "assay": "STK19 kinase assay, L139F mutant", "conditions": "L139F mutation", "method": "as §1"}, "[28]": {"conditions": "blood chemistry in tolerability studies"}}}
{"smiles": "COc1cc2nc(NC3CC3)nc(NC3CCN(C(C)C)CC3)c2cc1OC", "note": "[Formula IV]", "values": [{"measurement": "serum transaminase levels", "setting": "[1]; C57BL/6J mice", "value": "did not affect"}, {"measurement": "mouse weight", "setting": "[1]; C57BL/6J mice, 25 mg/kg BID for 15 days", "value": "did not affect"}, {"measurement": "histology of mouse tissues", "setting": "[1]; C57BL/6J mice, 25 mg/kg BID for 15 days, H&E", "value": "did not affect"}, {"measurement": "Alanine aminotransferase (ALT)", "setting": "[1]; [28]", "value": "27.6 ± 5.6", "unit": "U/L"}, {"measurement": "Albumin (ALB)", "setting": "[1]; [28]", "value": "28.3 ± 2.7", "unit": "g/L"}, {"measurement": "Alkaline phosphatase (ALP)", "setting": "[1]; [28]", "value": "3.9 ± 1.7", "unit": "U/L"}, {"measurement": "Aspartate aminotransferase (AST)", "setting": "[1]; [28]", "value": "54.4 ± 9.4", "unit": "U/L"}, {"measurement": "Creatinine (CRE)", "setting": "[1]; [28]", "value": "17.7 ± 4.2", "unit": "µmol/L"}, {"measurement": "Lactic dehydrogenase (LDH)", "setting": "[1]; [28]", "value": "247.3 ± 41.0", "unit": "U/L"}, {"measurement": "Phosphorus (P)", "setting": "[1]; [28]", "value": "1.67 ± 0.39"}, {"measurement": "Total bilirubin (T-Bil)", "setting": "[1]; [28]", "value": "2.68 ± 0.44", "unit": "µmol/L"}, {"measurement": "Total protein (TP)", "setting": "[1]; [28]", "value": "50.9 ± 2.5", "unit": "g/L"}, {"measurement": "mutant NRAS/STK19-driven melanocyte proliferation", "setting": "[2]", "value": "significantly inhibited"}, {"measurement": "remaining activity at 1 µM", "setting": "[3]", "value": 93, "unit": "%"}, {"measurement": "remaining activity at 1 µM", "setting": "[4]", "value": 62, "unit": "%"}, {"measurement": "remaining activity at 1 µM", "setting": "[5]", "value": 68, "unit": "%"}, {"measurement": "remaining activity at 1 µM", "setting": "[6]", "value": 35, "unit": "%"}, {"measurement": "remaining activity at 1 µM", "setting": "[7]", "value": 100, "unit": "%"}, {"measurement": "remaining activity at 1 µM", "setting": "[8]", "value": 99, "unit": "%"}, {"measurement": "remaining activity at 1 µM", "setting": "[9]", "value": 95, "unit": "%"}, {"measurement": "remaining activity at 1 µM", "setting": "[10]", "value": 74, "unit": "%"}, {"measurement": "remaining activity at 1 µM", "setting": "[11]", "value": 100, "unit": "%"}, {"measurement": "remaining activity at 1 µM", "setting": "[12]", "value": 92, "unit": "%"}, {"measurement": "remaining activity at 1 µM", "setting": "[13]", "value": 93, "unit": "%"}, {"measurement": "remaining activity at 1 µM", "setting": "[14]", "value": 85, "unit": "%"}, {"measurement": "remaining activity at 1 µM", "setting": "[15]", "value": 98, "unit": "%"}, {"measurement": "remaining activity at 1 µM", "setting": "[16]", "value": 83, "unit": "%"}, {"measurement": "remaining activity at 1 µM", "setting": "[17]", "value": 90, "unit": "%"}, {"measurement": "remaining activity at 1 µM", "setting": "[18]", "value": 87, "unit": "%"}, {"measurement": "remaining activity at 1 µM", "setting": "[19]", "value": 54, "unit": "%"}, {"measurement": "remaining activity at 1 µM", "setting": "[20]", "value": 100, "unit": "%"}, {"measurement": "remaining activity at 1 µM", "setting": "[21]", "value": 100, "unit": "%"}, {"measurement": "remaining activity at 1 µM", "setting": "[22]", "value": 99, "unit": "%"}, {"measurement": "remaining activity at 1 µM", "setting": "[23]", "value": 91, "unit": "%"}, {"measurement": "remaining activity at 1 µM", "setting": "[24]", "value": 84, "unit": "%"}, {"measurement": "remaining activity at 1 µM", "setting": "[25]", "value": 100, "unit": "%"}, {"measurement": "remaining activity at 1 µM", "setting": "[26]", "value": 93, "unit": "%"}, {"measurement": "ΔTm at 100 µM", "setting": "STK19", "value": 6.8, "unit": "°C"}, {"measurement": "IC50", "setting": "[27]", "value": 467, "unit": "nM"}, {"measurement": "inhibitory potential of IV for STK19 L139F", "setting": "STK19 L139F", "value": "remarkably compromised"}]}
